Consider 1 compound from ChEMBL document CHEMBL4311992, “Discovery of 3-(((9H-purin-6-yl)amino)methyl)-4,6-dimethylpyridin-2(1H)-one derivatives as novel tubulin polymerization inhibitors for treatment of cancer” (Eur J Med Chem, 2019).

Test [1] is filed under the species Homo sapiens. As to the kind of experiment: Inhibition of recombinant human Flt4 V1128L/H1146R mutant (800 to end residues) assessed as residual activity at 10 uM using GGEEEEYFELVKKKK as substrate measured after 40 mins in presence of [gamma33P]ATP by scintillation counting method.
The target of test [2] is Death-associated protein kinase 2 (Homo sapiens) (UniProt Q9UIK4). As to the kind of experiment: Inhibition of recombinant full-length human DAPK2 assessed as residual activity at 10 uM using calmodulin as substrate measured after 40 mins in presence of [gamma33P]ATP by scintillation counting method.
Test [3] deals with Serine/threonine-protein kinase Sgk2 (Homo sapiens), Q9HBY8 [S416D]. As to the kind of experiment: Inhibition of recombinant human SGK2 S416D mutant (54 to end residues) assessed as residual activity at 10 uM using GRPRTSSFAEGKK as substrate measured after 40 mins in presence of [gamma33P]ATP by scintillation counting method.
Test [4] addresses Cyclin-dependent kinase 14/Cyclin-Y (Homo sapiens) (UniProt O94921+Q8ND76). As to the kind of experiment: Inhibition of human CDK14/cyclinY assessed as residual activity at 10 uM by radiometric method. Type of test: protein-complex assay.
Test [5] deals with MDA-MB-231. The test can be described thus: Antiproliferative activity against human MDA-MB-231 cells assessed as reduction in cell viability after 72 hrs by MTT assay. It counts as functional, cell-based. Conditions: MDA-MB-231, 72 h. (In general: Tetrazolium assays rely on reduction of a dye to a coloured formazan, in cell work by metabolically active cells.)
Test [6] is filed under the species Mus musculus. As to the kind of experiment: Inhibition of recombinant full-length mouse PI3K p110alpha/p85alpha E545K mutant assessed as residual activity at 10 uM using phosphatidylinositol-4, 5-bisphosphate as substrate measured after 40 mins by HTRF assay. For orientation: Time-resolved FRET reads energy transfer from a long-lived donor to a nearby acceptor.

For test [7], the species on record is Mus musculus. As to the kind of experiment: Inhibition of recombinant full-length mouse PI3K p110alpha/p85alpha assessed as residual activity at 10 uM using phosphatidylinositol-4, 5-bisphosphate as substrate measured after 40 mins by HTRF assay.
Test [8] concerns the target cGMP-dependent protein kinase 2 (Homo sapiens) (UniProt Q13237). The test can be described thus: Inhibition of recombinant full-length human PRKG2 assessed as residual activity at 10 uM using KKLRRTLSFAEPG as substrate measured after 40 mins in presence of [gamma33P]ATP by scintillation counting method.
For test [9], the system named is Serine/threonine-protein kinase N1 (Homo sapiens), Q16512 [V901I]. The test can be described thus: Inhibition of human PRK1 V901I mutant (498 to end residues) using KKLNRTLSFAEPG as substrate measured after 40 mins in presence of [gamma33P]ATP by scintillation counting method. Also on record: scale not given: the % may be the effect or the level left.
Test [10] has as its target Ephrin type-A receptor 7 (Homo sapiens) (UniProt Q15375). As to the kind of experiment: Inhibition of recombinant human EphA7 (613 to 909 residues) assessed as residual activity at 10 uM using KTFCGTPEYLAPEVRREPRILSEEEQEMFRDFDYIADWC as substrate measured after 40 mins in presence of [gamma33P]ATP by scintillation counting method.
Test [11] relates to HCT-116. The test can be described thus: Induction of apoptosis in human HCT116 cells assessed as increase in cleaved caspase3 expression up to 200 nM measured after 48 hrs by Western blot analysis. Type of test: functional, cell-based. (Immunoblotting shows a protein as a band on a membrane.)
The test system of test [12] is Tyrosine-protein kinase ABL1 (Homo sapiens), P00519 [Q252H]. As to the kind of experiment: Inhibition of recombinant human ABL Q252H mutant (27 to end residues) assessed as residual activity at 10 uM using EAIYAAPFAKKK as substrate measured after 40 mins in presence of [gamma33P]ATP by scintillation counting method.
Test [13] addresses Insulin receptor (Homo sapiens) (UniProt P06213). The test can be described thus: Inhibition of recombinant human activated IR (1005 to 1310 residues) assessed as residual activity at 10 uM using KKKSPGEYVNIEFG as substrate measured after 40 mins in presence of [gamma33P]ATP by scintillation counting method.
For test [14], the target named is Calcium/calmodulin-dependent protein kinase type 1 (Homo sapiens) (UniProt Q14012). As to the kind of experiment: Inhibition of recombinant human CaMK1 (2 to end residues) assessed as residual activity at 10 uM using […] as substrate measured after 40 mins in presence of [gamma33P]ATP by scintillation counting method.
Test [15] deals with Dual specificity tyrosine-phosphorylation-regulated kinase 3 (Homo sapiens) (UniProt O43781). The test can be described thus: Inhibition of recombinant full-length human DYRK3 assessed as residual activity at 10 uM using RRRFRPASPLRGPPK as substrate measured after 40 mins in presence of [gamma33P]ATP by scintillation counting method.
The target of test [16] is Serine/threonine-protein kinase ULK1 (Homo sapiens) (UniProt O75385). As to the kind of experiment: Inhibition of human ULK1 (1 to 314 residues) using casein as substrate measured after 40 mins in presence of [gamma33P]ATP by scintillation counting method. Also on record: scale not given: the % may be the effect or the level left.
Test [17] concerns the target Protein-tyrosine kinase 6 (Homo sapiens) (UniProt Q13882). The test can be described thus: Inhibition of full-length recombinant human BRK assessed as residual activity at 10 uM using poly(Glu, Tyr) 4:1 as substrate measured after 40 mins in presence of [gamma33P]ATP by scintillation counting method.
Test [18] addresses CDK9/cyclin T1 (Homo sapiens) (UniProt O60563+P50750). As to the kind of experiment: Inhibition of recombinant full length human CDK9/cyclinT1 assessed as residual activity at 10 uM using KTFCGTPEYLAPEVRREPRILSEEEQEMFRDFDYIADWC as substrate measured after 40 mins in presence of [gamma33P]ATP by scintillation counting method. Type of test: protein-complex assay.
Test [19] has as its target Wee1-like protein kinase (Homo sapiens) (UniProt P30291). The test can be described thus: Inhibition of human Wee1 (214 to end residues) using LSNLYHQGKFLQTFCGSPLYRRR as substrate measured after 40 mins in presence of [gamma33P]ATP by scintillation counting method. Also on record: scale not given: the % may be the effect or the level left.
Test [20] addresses Serine/threonine-protein kinase pim-3 (Homo sapiens) (UniProt Q86V86). The test can be described thus: Inhibition of recombinant human Pim3 (2 to end residues) assessed as residual activity at 10 uM using RSRHSSYPAGT as substrate measured after 40 mins in presence of [gamma33P]ATP by scintillation counting method.
Test [21] relates to Mitogen-activated protein kinase 14 (Homo sapiens), Q16539 [T106M]. As to the kind of experiment: Inhibition of recombinant full-length human SAPK2a T106M mutant assessed as residual activity at 10 uM using myelin basic protein as substrate measured after 40 mins in presence of [gamma33P]ATP by scintillation counting method.
Test [22] deals with Cyclin-Y/Cyclin-dependent kinase 16 (Homo sapiens) (UniProt Q00536+Q8ND76). As to the kind of experiment: Inhibition of recombinant full length human CDK16/cyclinY assessed as residual activity at 10 uM using PKSPKARKKL as substrate measured after 120 mins in presence of [gamma33P]ATP by scintillation counting method. It counts as protein-complex assay.
The target in test [23] is Testis-specific serine/threonine-protein kinase 2 (Homo sapiens) (UniProt Q96PF2). The test can be described thus: Inhibition of recombinant full-length human TSSK2 assessed as residual activity at 10 uM using KKKVSRSGLYRSPSMPENLNRPR as substrate measured after 40 mins in presence of [gamma33P]ATP by scintillation counting method.
Test [24] addresses Calcium/calmodulin-dependent protein kinase type 1D (Homo sapiens) (UniProt Q8IU85). As to the kind of experiment: Inhibition of recombinant full-length human CaMK1delta assessed as residual activity at 10 uM using calmodulin as substrate measured after 40 mins in presence of [gamma33P]ATP by scintillation counting method.

pIC50: −log10 of the molar value. Calls of active or inactive are those of the source. The rule behind the calls is not given here.

Chain of Mitogen-activated protein kinase 14 (Homo sapiens), Q16539 [T106M] (Q16539 whole entry T106M): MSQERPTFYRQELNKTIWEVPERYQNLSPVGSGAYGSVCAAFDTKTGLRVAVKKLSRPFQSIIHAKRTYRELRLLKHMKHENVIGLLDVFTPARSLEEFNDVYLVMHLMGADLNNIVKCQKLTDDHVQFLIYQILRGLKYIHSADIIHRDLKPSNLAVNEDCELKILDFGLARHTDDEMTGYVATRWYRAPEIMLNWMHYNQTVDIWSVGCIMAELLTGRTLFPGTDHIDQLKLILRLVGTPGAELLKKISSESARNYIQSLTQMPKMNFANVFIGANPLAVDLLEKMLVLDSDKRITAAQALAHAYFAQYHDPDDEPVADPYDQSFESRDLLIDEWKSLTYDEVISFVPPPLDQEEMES
Chain of Death-associated protein kinase 2 (Homo sapiens) (Q9UIK4 whole entry, looked up): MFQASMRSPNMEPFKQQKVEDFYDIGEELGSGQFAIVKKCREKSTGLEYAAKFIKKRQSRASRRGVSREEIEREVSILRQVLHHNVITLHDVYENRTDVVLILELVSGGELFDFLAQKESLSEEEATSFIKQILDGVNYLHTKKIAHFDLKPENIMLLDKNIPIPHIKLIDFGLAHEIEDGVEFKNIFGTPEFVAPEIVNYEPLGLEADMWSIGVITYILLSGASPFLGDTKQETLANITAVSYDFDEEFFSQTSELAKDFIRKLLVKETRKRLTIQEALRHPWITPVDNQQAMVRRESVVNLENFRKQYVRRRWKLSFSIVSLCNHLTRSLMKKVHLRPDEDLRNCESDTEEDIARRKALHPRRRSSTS
Chain of Serine/threonine-protein kinase Sgk2 (Homo sapiens), Q9HBY8 [S416D] (Q9HBY8 1-367 with tags or gaps S416D): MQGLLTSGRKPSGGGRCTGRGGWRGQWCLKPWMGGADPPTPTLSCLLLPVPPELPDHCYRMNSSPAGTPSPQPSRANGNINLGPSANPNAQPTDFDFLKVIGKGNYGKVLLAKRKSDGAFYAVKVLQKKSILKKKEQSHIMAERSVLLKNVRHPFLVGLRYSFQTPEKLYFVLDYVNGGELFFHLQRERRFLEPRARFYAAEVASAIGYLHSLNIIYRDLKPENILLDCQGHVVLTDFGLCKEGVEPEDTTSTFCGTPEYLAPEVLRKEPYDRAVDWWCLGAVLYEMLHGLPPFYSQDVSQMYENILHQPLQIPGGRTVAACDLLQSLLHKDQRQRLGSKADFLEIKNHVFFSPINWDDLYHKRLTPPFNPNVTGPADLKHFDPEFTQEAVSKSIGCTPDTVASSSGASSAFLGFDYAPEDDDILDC
Chain of Wee1-like protein kinase (Homo sapiens) (P30291 whole entry, looked up): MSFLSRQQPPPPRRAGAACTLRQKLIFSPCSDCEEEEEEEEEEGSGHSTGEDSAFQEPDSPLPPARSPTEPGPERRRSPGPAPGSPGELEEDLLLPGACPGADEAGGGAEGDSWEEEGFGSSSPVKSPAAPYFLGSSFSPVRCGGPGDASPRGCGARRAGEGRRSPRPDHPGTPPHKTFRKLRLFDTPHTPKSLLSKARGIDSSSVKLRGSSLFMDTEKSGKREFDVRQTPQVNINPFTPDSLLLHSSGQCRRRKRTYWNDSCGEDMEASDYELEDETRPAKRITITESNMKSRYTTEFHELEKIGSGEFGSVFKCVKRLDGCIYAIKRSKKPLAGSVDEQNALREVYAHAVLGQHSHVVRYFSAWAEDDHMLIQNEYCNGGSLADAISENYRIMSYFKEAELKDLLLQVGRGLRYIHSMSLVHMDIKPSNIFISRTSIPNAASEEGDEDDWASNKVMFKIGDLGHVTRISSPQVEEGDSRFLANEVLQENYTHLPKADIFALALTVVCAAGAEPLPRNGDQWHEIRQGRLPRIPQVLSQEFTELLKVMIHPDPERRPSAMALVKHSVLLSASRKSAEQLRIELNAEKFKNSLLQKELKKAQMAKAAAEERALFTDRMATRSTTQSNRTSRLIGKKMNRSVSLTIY
Chain of cGMP-dependent protein kinase 2 (Homo sapiens) (Q13237 whole entry): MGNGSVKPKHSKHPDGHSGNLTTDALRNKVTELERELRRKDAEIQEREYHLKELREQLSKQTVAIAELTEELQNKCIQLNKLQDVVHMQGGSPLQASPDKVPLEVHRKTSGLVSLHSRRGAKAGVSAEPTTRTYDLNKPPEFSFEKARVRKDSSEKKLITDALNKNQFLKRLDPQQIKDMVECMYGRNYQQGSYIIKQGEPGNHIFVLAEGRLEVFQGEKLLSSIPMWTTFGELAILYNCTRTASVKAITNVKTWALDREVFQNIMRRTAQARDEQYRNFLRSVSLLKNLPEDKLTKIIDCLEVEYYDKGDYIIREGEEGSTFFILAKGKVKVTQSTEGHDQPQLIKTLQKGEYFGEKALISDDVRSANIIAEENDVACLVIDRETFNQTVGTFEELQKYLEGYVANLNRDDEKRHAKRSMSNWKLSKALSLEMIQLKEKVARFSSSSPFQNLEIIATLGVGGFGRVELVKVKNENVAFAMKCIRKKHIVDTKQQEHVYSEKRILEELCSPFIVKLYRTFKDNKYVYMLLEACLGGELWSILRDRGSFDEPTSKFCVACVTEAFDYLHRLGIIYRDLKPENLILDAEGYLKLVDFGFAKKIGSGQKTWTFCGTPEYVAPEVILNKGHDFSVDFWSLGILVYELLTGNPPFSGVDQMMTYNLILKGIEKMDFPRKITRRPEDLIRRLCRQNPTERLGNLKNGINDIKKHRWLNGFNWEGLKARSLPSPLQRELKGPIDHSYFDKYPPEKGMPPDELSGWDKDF
Chain of Calcium/calmodulin-dependent protein kinase type 1D (Homo sapiens) (Q8IU85 whole entry, looked up): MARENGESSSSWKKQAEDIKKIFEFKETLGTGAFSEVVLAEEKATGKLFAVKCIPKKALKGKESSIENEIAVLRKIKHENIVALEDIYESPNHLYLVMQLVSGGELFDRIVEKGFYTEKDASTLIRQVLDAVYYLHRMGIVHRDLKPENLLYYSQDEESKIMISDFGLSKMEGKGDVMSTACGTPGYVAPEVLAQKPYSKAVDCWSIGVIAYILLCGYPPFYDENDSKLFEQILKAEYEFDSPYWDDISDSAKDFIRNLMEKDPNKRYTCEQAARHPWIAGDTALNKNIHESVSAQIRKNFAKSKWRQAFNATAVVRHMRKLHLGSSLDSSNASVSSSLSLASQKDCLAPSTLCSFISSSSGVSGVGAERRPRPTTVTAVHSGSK
Chain of Protein-tyrosine kinase 6 (Homo sapiens) (Q13882 whole entry, looked up): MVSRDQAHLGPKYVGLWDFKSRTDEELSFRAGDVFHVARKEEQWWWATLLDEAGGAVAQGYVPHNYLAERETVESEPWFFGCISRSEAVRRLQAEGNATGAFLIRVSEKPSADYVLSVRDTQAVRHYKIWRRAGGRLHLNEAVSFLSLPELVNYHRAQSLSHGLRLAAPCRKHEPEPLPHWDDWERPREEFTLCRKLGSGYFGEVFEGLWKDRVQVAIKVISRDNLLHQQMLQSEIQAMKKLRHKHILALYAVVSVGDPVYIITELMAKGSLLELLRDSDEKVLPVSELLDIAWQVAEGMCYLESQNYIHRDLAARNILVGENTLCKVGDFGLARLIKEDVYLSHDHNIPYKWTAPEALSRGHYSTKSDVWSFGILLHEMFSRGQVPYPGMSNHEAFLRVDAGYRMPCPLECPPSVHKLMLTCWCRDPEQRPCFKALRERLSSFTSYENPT
Chain of Testis-specific serine/threonine-protein kinase 2 (Homo sapiens) (Q96PF2 whole entry): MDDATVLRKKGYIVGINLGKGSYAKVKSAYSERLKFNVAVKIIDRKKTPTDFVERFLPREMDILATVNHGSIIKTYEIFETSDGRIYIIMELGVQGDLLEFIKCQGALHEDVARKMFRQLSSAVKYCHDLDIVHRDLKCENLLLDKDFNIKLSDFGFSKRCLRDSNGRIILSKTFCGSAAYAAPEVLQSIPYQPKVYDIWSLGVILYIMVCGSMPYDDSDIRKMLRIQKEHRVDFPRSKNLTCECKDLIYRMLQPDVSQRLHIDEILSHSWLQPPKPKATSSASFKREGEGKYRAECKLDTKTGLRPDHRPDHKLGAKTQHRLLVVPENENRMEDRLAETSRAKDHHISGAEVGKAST
Chain of Serine/threonine-protein kinase ULK1 (Homo sapiens) (O75385 whole entry, the tested form may be a part): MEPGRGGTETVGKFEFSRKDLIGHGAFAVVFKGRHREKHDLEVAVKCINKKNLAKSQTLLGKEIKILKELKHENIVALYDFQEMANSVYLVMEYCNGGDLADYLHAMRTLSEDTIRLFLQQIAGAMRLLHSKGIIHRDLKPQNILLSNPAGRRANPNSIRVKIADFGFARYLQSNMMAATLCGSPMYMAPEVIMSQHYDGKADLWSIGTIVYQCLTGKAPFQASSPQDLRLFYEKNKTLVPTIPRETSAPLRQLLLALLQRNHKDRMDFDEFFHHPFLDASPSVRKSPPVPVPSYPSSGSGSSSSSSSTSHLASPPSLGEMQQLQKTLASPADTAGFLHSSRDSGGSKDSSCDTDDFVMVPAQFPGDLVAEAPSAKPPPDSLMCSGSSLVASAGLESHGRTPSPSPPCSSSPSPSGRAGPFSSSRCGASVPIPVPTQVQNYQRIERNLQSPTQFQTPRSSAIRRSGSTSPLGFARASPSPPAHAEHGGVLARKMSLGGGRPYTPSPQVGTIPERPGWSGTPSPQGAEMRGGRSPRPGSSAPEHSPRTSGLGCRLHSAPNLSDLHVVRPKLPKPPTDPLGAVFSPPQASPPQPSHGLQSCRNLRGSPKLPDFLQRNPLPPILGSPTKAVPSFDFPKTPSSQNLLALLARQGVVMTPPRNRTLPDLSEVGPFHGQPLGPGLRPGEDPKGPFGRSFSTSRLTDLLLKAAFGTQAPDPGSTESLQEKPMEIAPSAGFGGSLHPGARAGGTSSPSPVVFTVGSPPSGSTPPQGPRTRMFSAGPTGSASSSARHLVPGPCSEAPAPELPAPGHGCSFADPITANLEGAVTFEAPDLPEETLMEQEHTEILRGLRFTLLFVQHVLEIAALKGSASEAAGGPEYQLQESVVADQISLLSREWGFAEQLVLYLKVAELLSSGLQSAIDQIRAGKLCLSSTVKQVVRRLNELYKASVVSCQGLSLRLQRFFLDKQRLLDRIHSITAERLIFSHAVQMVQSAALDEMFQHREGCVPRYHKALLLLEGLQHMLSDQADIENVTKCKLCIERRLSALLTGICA

As usually defined, the pIC50 is −log10 of the IC50, conventionally taken in molar units. Consider `Cc1cc(C)c(CNc2nc(Cl)nc3c2ncn3C2CCCC2)c(=O)[nH]1`, for which the Activity in [1] worked out at 104%; in test [2], 97%; in [3], 112%; in test [4], 96.5%; in test [6], 99%; in test [7], 99.5%. The Activity was determined as 98% in test [8]; 98.5% in test [9]; 98.5% in test [10]; 106% in test [12]; 101% in [13]; 109% in test [14]. The Activity in test [15] was 122%; in test [16], 104%; in test [17] it was 100%; in test [18], 106%; in [19], 84.5%; in test [20], 107%. Further, the Activity was determined as 100% in [21], 123% in test [22], 117% in test [23] and 107% in test [24]. Besides, in test [5], the pIC50 was 6.70. Besides, in test [11], the outcome was Active.
